Where two headings read alike, the source gives them in different places.
Target: T1, prolyl endopeptidase (Sus scrofa, UniProt P23687)
T1 construct: porcine kidney enzyme which was prepared according to methods of Walter and Yoshimoto et al; from tissue; host or cells: porcine kidney
Assay: Prolyl endopeptidase-inhibitory activity in vitro (porcine kidney enzyme, Z-Gly-Pro-p-nitroanilide substrate)
Assay type: biochemical
Method: A test compound (2 mg) was dissolved in DMSO (2 ml) and diluted to appropriate concentrations with DMSO. Z-Gly-Pro-p-nitroanilide (8 mg), a substrate was dissolved in dioxane (5 ml), water (27 ml) and 0.2 M phosphate buffer (pH 7.8, 40 ml). The substrate solution ([…]) was mixed with an inhibitor solution (3 ml) and followed by addition of above mentioned porcine kidney enzyme solution ([…]). Immediately after the mixing the UV absorbance at 405 nm was detected. The mixture was incubated at 37° C. for 20 min. and the UV absorbance was checked. A standard curve of absorbance (OD) vs. p-nitroaniline concentration was used to relate the absorbance to amount of substrate hydrolyzed. […] The inhibiting activity was obtained following the equation below. The IC50 value was estimated from the inhibitor concentration vs. inhibitory activity curve.
The percent inhibitory activity (%)=(ΔODc -ΔODs)/ΔODc ×100
ΔODs : ΔOD for test sample

[1] = porcine kidney enzyme, pH 7.8, 37° C., 20 min, read-out: IC50 (converted)
[2] = porcine kidney enzyme, pH 7.8, 37° C., 20 min

T1 sequence (P23687 whole entry): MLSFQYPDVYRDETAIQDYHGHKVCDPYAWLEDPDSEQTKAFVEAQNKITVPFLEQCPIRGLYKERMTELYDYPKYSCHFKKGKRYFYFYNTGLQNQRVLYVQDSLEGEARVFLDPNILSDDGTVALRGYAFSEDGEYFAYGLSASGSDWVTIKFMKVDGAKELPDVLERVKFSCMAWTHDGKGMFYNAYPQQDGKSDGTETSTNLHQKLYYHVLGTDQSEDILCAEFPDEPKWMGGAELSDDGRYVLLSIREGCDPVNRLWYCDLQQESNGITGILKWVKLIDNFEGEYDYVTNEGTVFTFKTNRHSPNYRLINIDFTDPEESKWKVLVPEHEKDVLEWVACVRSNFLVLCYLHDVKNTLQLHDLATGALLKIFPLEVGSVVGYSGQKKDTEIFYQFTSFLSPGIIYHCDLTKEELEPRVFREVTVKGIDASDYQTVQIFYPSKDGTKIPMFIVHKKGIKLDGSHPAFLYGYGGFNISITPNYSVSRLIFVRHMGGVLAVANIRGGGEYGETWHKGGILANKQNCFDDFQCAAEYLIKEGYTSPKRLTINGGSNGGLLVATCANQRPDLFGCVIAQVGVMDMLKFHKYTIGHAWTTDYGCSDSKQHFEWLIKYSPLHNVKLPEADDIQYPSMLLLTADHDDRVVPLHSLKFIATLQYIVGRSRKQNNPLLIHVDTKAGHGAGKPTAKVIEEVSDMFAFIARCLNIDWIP

Compound | IC50 | further results
O=C(c1nc2ccccc2s1)[C@@H]1CCCN1C(=O)[C@@H]1C[C@@H](Sc2ccccc2)CN1C(=O)OCc1ccccc1 [Example 20, 2-{1-(1-Benzyloxycarbonyl-4(R)-phenylthiopyrrolidin-2(S)-ylcarbonyl)pyrrolidin-2(S)-ylcarbonyl}benzothiazole] | 2.45 nM | 
O=C(c1nccs1)[C@@H]1CCCN1C(=O)[C@@H]1CC2CCCCC2N1C(=O)OCc1ccccc1 (stereo partly drawn) [Example 6, 2-{1(1-Benzyloxycarbonyloctahydroindol-2(S)-ylcarbonyl)pyrrolidin-2(S)ylcarbonyl}thiazole] | 4.28 nM | 
O=C(c1cccnc1)[C@@H]1CCCN1C(=O)[C@@H]1CCCN1C(=O)CCCc1ccccc1 [Example 30, 3-[1-{1-(4-Phenylbutanoyl)pyrrolidin-2(S)-ylcarbonyl}pyrrolidin-2(S)-ylcarbonyl]pyridine] | 2620 nM | 
O=C(c1nccs1)[C@@H]1CCCN1C(=O)[C@@H]1CCCN1C(=O)OCc1ccccc1 [Example 4, 2-{1-(1-Benzyloxycarbonylpyrrolidin-2(S)-ylcarbonyl)pyrrolidin-2(S)-ylcarbonyl}thiazole] | 5.8 nM | 
O=C(c1nc2ccccc2s1)[C@@H]1CCCN1C(=O)[C@@H]1Cc2ccccc2N1C(=O)CCCc1ccccc1 [Example 19, 2-[1-{1-(4-Phenylbutanoyl)indolin-2(S)-ylcarbonyl}pyrrolidin-2(S)-ylcarbonyl]benzothiazole] | 5.44 nM | 
O=C(c1nccs1)[C@@H]1CCCN1C(=O)[C@@H]1CC2CCCCC2N1C(=O)CCCc1ccccc1 (stereo partly drawn) [Example 7, 2-[1-{1-(4-Phenylbutanoyl)octahydroindol-2(S)-ylcarbonyl}pyrrolidin-2(S)-ylcarbonyl]thiazole] | 2.4 nM | 
O=C(c1cccs1)[C@@H]1CCCN1C(=O)[C@@H]1CCCN1C(=O)OCc1ccccc1 [Example 25] |  | IC50 [1]: 1380 nM
O=C(c1cocn1)[C@@H]1CCCN1C(=O)[C@@H]1Cc2ccccc2N1C(=O)OCc1ccccc1 [Example 3, 4-{1-(1-Benzyloxycarbonylindolin-2(S)-ylcarbonyl)pyrrolidin2(S) -ylcarbonyl}oxazole] | 9.54 nM | 
O=C(c1ncc[nH]1)[C@@H]1CCCN1C(=O)[C@@H]1CCCN1C(=O)CCCc1ccccc1 [Example 28, 2-[1-{1-(4-Phenylbutanoyl)pyrrolidin-2(S)-ylcarbonyl}pyrrolidin-2(S)-ylcarbonyl]-1H-imidazole] |  | IC50 [1]: 6.24 nM
O=C(c1nc2ccccc2[nH]1)[C@@H]1CCCN1C(=O)[C@@H]1CCCN1C(=O)CCCc1ccccc1 [Example 29, 2-[1-{1-(4-Phenylbutanoyl)pyrrolidin-2(S)-ylcarbonyl}pyrrolidin-2(S)-ylcarbonyl]-1H-benzimidazole] | 3.82 nM | 
O=C(c1nccs1)[C@@H]1CCCN1C(=O)[C@@H]1C[C@@H](Sc2ccccc2)CN1C(=O)OCc1ccccc1 [Example 2, 2-[1-{1-Benzyloxycarbonyl-4(R)-phenylthiopyrrolidin-2(S)-ylcarbonyl}pyrrolidin-2(S)-ylcarbonyl]thiazole] | 4.79 nM | 
O=C(c1nc2ncccc2[nH]1)[C@@H]1CCCN1C(=O)[C@@H]1CCCN1C(=O)CCCc1ccccc1 [Example 38, 2-[1-{1-(4-Phenylbutanoyl)pyrrolidin-2(S)-ylcarbonyl}pyrrolidin-2(S)-ylcarbonyl]imidazo[4,5-b]pyridine] | 6.09 nM | 
O=C(c1nc2ccccc2[nH]1)[C@@H]1CCCN1C(=O)[C@@H]1CCCN1C(=O)OCc1ccccc1 [Example 39] | 7.61 nM | 
O=C(c1ccccn1)[C@@H]1CCCN1C(=O)[C@@H]1CCCN1C(=O)CCCc1ccccc1 [Example 32, 2-[1-{1-(4-Phenylbutanoyl)pyrrolidin-2(S)-ylcarbonyl}pyrrolidin-2(S)-ylcarbonyl]pyridine] | 7.15 nM | 
O=C(c1nccs1)[C@@H]1CCCN1C(=O)[C@@H]1C[C@@H](Sc2ccccc2)CN1C(=O)CCCc1ccccc1 [Example 10, 2-[1-{1-(4-Phenylbutanoyl)-4(R)-phenylthiopyrrolidin-2(S)-ylcarbonyl}-pyrrolidin-2(S)-ylcarbonyl]thiazole] | 1.12 nM | 
O=C(c1nccs1)[C@@H]1CCCN1C(=O)[C@@H]1CCCN1C(=O)CCCc1ccccc1 [Example 5, 2-[1-{1(4-Phenylbutanoyl)pyrrolidin-2(S)-ylcarbonyl}pyrrolidin-2(S)-ylcarbonyl]thiazole] |  | IC50 [2]: 0.00133 µg/mL
O=C(c1cncnc1)[C@@H]1CCCN1C(=O)[C@@H]1CCCN1C(=O)CCCc1ccccc1 [Example 31, 5-[1-{1-(4-Phenylbutanoyl)pyrrolidin-2(S)-ylcarbonyl}pyrrolidin-2(S)-ylcarbonyl]pyrimidine] | 64.2 nM | 
O=C(CSCc1ccccc1)C1CCCCC1C(=O)N1CCC[C@H]1C(=O)c1nc2ccccc2s1 (stereo partly drawn) [Example 22, 2-[1-(2-Benzylthioacetylcyclohexan-1-ylcarbonyl)pyrrolidin-2(S)-ylcarbonyl]benzothiazole] | 12.6 nM | 

Compound | IC50 | further results
O=C(c1cccs1)[C@@H]1CCCN1C(=O)[C@@H]1CCCN1C(=O)CCCc1ccccc1 [Example 26, 2-[1-{1-(4-Phenylbutanoyl)pyrrolidin-2(S)-ylcarbonyl}pyrrolidin-2(S)-ylcarbonyl]thiophene] |  | IC50 [2]: 0.81 µg/mL
O=C(c1nc2ccccc2o1)[C@@H]1CCCN1C(=O)[C@@H]1CCCN1C(=O)CCCc1ccccc1 [Example 36, 2-[1-{1-(4-Phenylbutanoyl)pyrrolidin-2(S)-ylcarbonyl}pyrrolidin-2(S)-ylcarbonyl]benzoxazole] | 4.13 nM | 
O=C(c1cncs1)[C@@H]1CCCN1C(=O)[C@@H]1CCCN1C(=O)CCCc1ccccc1 [Example 33, 5-[1-{1-(4-Phenylbutanoyl)pyrrolidin-2(S)-ylcarbonyl}pyrrolidin-2(S)-ylcarbonyl]thiazole] |  | IC50 [2]: 0.275 µg/mL
COc1nccnc1C(=O)[C@@H]1CCCN1C(=O)[C@@H]1CCCN1C(=O)CCCc1ccccc1 [Example 40, 2-Methoxy-3-[1-{1-(4-phenylbutanoyl)pyrrolidine-2(S)-ylcarbonyl}pyrrolidin-2(S)-ylcarbonyl]pyrazine] | 33.3 nM | 
O=C(c1nc2ccccc2s1)[C@@H]1CCCN1C(=O)[C@@H]1C[C@@H](Sc2ccccc2)CN1C(=O)CCCc1ccccc1 [Example 21, 2-[1-{1-(4-Phenylbutanoyl)-4(R)-phenylthiopyrrolidin-2(S)-ylcarbonyl}pyrrolidin-2(S)-ylcarbonyl]benzothiazole] | 1.8 nM | 
Cc1nc(C(=O)[C@@H]2CCCN2C(=O)[C@@H]2CCCN2C(=O)CCCc2ccccc2)sc1C [Example 27, 4,5-Dimethyl-2-[1-{1-(4-phenylbutanoyl)pyrrolidin-2(S)-ylcarbonyl}pyrrolidin-2(S)-ylcarbonyl]thiazole] | 6.06 nM | 
O=C(CSCc1ccccc1)C1CCCCC1C(=O)N1CCC[C@H]1C(=O)c1nccs1 (stereo partly drawn) [Example 16, 2-[1-(2-Benzylthioacetylcyclohexan-1-ylcarbonyl)pyrrolidin-2(S)-ylcarbonyl]thiazole] | 53.7 nM | 
2-[1-{1-(4-Phenylbutanoyl)indolin-2(S)-ylcarbonyl}pyrrolidin-2(S)-ylcarbonyl]oxazole [Example 24] |  | IC50 [2]: 0.0055 µg/mL
O=C(c1nc2ncccc2o1)[C@@H]1CCCN1C(=O)[C@@H]1CCCN1C(=O)CCCc1ccccc1 [Example 37, 2-[1 -{1-(4-Phenylbutanoyl)pyrrolidin-2(S)-ylcarbonyl}pyrrolidin-2(S)-ylcarbonyl]oxazolo[4,5-b]pyridine] | 4.78 nM | 
O=C(CSCc1ccccc1)C1CCCC1C(=O)N1CCC[C@H]1C(=O)c1nccs1 (stereo partly drawn) [Example 15, 2-[1-{2-Benzylthioacetylcyclopentan-1-ylcarbonyl)pyrrolidin-2(S)-ylcarbonyl}thiazole] |  | IC50 [2]: 54.2 nM
O=C(c1nccs1)[C@@H]1CCCN1C(=O)[C@@H]1Cc2ccccc2N1C(=O)OCc1ccccc1 [Example 8, 2-{1-(1-Benzyloxycarbonylindolin-2(S)-ylcarbonyl)pyrrolidin-2(S)-ylcarbonyl}thiazole] | 3.68 nM | 
2-[1-{1-(4-Phenylbutanoyl)pyrrolidin-2(S)-ylcarbonyl}pyrrolidin-2(S)-ylcarbonyl]oxazole [Example 23] |  | IC50 [2]: 0.0032 µg/mL
O=C(c1nc2ccccc2s1)[C@@H]1CCCN1C(=O)[C@@H]1CCCN1C(=O)OCc1ccccc1 [Example 17, 2-{1-(1-Benzyloxycarbonylpyrrolidin-2(S)-ylcarbonyl)pyrrolidin-2(S)-ylcarbonyl}benzothiazole] | 3.78 nM | 
2-[1-{1-(4-Phenylbutanoyl)pyrrolidin-2(S)-ylcarbonyl}pyrrolidin-2(S)-ylcarbonyl]pyrazole [Example 35] |  | IC50 [2]: 0.046 µg/mL
O=C(c1nc[nH]n1)[C@@H]1CCCN1C(=O)[C@@H]1CCCN1C(=O)CCCc1ccccc1 [Example 34, 3-[1-{1-(4-Phenylbutanoyl)pyrrolidin-2(S)-ylcarbonyl}pyrrolidin-2(S)-ylcarbonyl]1,2,4-triazole] | 6.11 nM | 
O=C(c1nc2ccccc2s1)[C@@H]1CCCN1C(=O)[C@@H]1Cc2ccccc2N1C(=O)OCc1ccccc1 [Example 18, 2-{1-(1-Benzyloxycarbonylindolin-2(S)-ylcarbonyl)pyrrolidin-2(S)-ylcarbonyl}benzothiazole] | 7.33 nM | 
O=C(c1nccs1)[C@@H]1CCCN1C(=O)[C@@H]1Cc2ccccc2N1C(=O)CCCc1ccccc1 [Example 9, 2-[1-{1-(4-Phenylbutanoyl)indolin-2(S)-ylcarbonyl}pyrrolidin-2(S)-ylcarbonyl]thiazole] | 5.49 nM | 

From patent US5547978A, “Derivatives of pyrrolidin-2-ylcarbonylheterocyclic compounds” (priority 1994, dated 1996)
